According to patent US4980378A, “Biodegradable absorption enhancers” (priority 1988, dated 1990):
Like-named read-outs stand apart in the source and are kept apart here. Blank lines part the entries; values can stand above or below the compound they belong to.

Legend:
[1] = Transdermal penetration of indomethacin from ointment across shed snake skin (vertical diffusion cell); assay type: in vitro ADME, black rat snake (Elahe obsoleta)
Procedure: Ointments were prepared by mixing 100 mg (1%) indomethancin, 500 mg (5%) penetration enhancer and 9400 mg (94%) petrolatum at 55°-60°C. to give a homogenous dispersion of indomethacin. In each transport study, 30 mg of ointment containing […] of indomethacin was applied.
(§1) A whole shed snake skin from the molt of adult Elahe obsoleta (black rat snake) was obtained from the Animal Care Unit of the University of Kansas. Only the dorsal side of the shed snake skin was used for in vitro penetration studies. The head and tail sections of the snake skin was removed and the remainder of the skin was cut randomly into sections of approximately 2 inches by 2 inches. Each piece of snake skin was hydrated overnight by first soaking the skin in water (about 5 to 10 minutes) until it could be stretched and then placing it on a plastic pan which held some water. The pan was floated on a water-bath at 32° C. overnight.
For the transport studies using ointments, approximately 30 mg of ointment prepared as described in Example 5 was smeared evenly on an area of the 2"×2" snake skin. The ointment was smeared into an essentially circular area approximately 1.77 cm^2 and having a diameter of approximately 15 mm. The snake skin was then mounted on top of the receptor cell of a vertical diffusion cell assembly in which a small magnetic bar was inserted and filled with an isotonic buffer. A rubber o-ring was placed on top of the skin followed by the placement of the donor cell. The two cells were clamped together and transferred to a water-bath (32° C.) which had several magnetic stirrers placed underneath to stir the contents of the diffusion cells. Samples from the cells were withdrawn periodically by gravity by inputting fresh isotonic buffer into the cell inlets. The first five drops were discarded and the following […] drops were collected for analysis. These nine drops of sample solution were approximately equivalent to about 0.20 ml.
The samples were analyzed for the concentration of indomethacin using a Perkin-Elmer ISS-100 HPLC apparatus with a Perkin-Elmer LC90 UV spectrophotometric detector and a Perkin-Elmer ISS-100 automatic sampler with the detection wavelength set at 260 nm. The peak heights of the chromatograms were recorded on a Perkin-Elmer LCI-100 Laboratory Computing Integrator. A reverse phase column, RP-8 Spheri-5, 4.6×100 mm and a guard column OD-GU, purchased from Brownlee Labs, were used in conjunction with the HPLC system. The flow rate was 1.0 ml/min and the solvent system was a mixture of acetonitrile (50%) and a 0.01 M phosphate buffer (pH 3.0) (50%).
The concentration in each sample was interpreted from a standard curve which was obtained by plotting the peak areas obtained from HPL chromatograms versus four different standard solutions of indomethacin. The standard curves were linear over a range of concentrations from 2.5 to 10 µg/ml. The receptor cell volume was calibrated by weighing the amount of water in the cell. The first sample needs no concentration correction. However, the concentration in the subsequent samples can be corrected by the following equation: [formula] where Xi is number of microgram of indomethacin in the i^th sample. Yi is the concentration correction for i-l sample. The volume withdrawn for each sampling is about 0.20 ml.
(§2) Statistical analyses were performed using the Student's t-test.
Relative penetration enhancements (%) were calculated by [formula]
Azone was selected as the for comparison since it is claimed to excellent enhancer although it is too toxic; was assigned a value of 100% enhancement.
Penetration that was equal the penetration of Azone was reported as 100% rela penetration. All of the relative enhancements in Table 3 are based on the early stage or hours o penetration studies.
At least 3 or 4 cells were used for each enhancer and mean val (μg) of indomethacin in the receptor cells are plotted versus time in hours.

[2] = assay type: in vitro ADME, black rat snake (Elahe obsoleta)
Procedure: Patches were prepared by first dissolving 300 mg indomethacin, 400 mg penetration enhancer, 300 mg polyethylene glycol 400 and 800 mg hydroxypropyl cellulose in 20 ml of ethanol. That viscous solution was spread on a backing layer, which was a film of ethoxycellulose, with 0.9 mm of thickness. After drying at 40° C. for one hour, two layer film patches were obtained. Circles with a diameter of 12 mm were used for the transport studies.
as §1, §2

[3] = intraperitoneal administration; cited from earlier work
[4] = indomethacin ointment, 5% enhancer, relative to Azone = 100%, early stage of penetration studies, 32° C.

Structure (SMILES): CCCCCCCCCCCCOC(=O)CN(CC)CC [Compound No. 5, dodecyl (N,N-diethylamino)acetate]
Relative Enhancement [1, 4]: 70%

Structure (SMILES): CCCCCCCCCCOC(=O)CN(C)C [compound 3, decyl (N,N-dimethylamino)acetate]
Relative Enhancement [1, 4]: 380%

Structure (SMILES): CCCCCCCCCCCCCCOC(=O)CN(C)C [Compound No. 1, tetradecyl (N,N-dimethylamino)acetate]
Relative Enhancement [1, 4]: 100%

Relative Enhancement [1]: 200%
speed of effect compared with Azone [1]: faster than that of Azone
transport of indomethacin compared with that accelerated by Azone [1]: twice
steady state flux for indomethacin [2]: 3.84 ± 0.57 µg/h
steady state flux ratio versus dodecyl alcohol [2]: 2.5 times
time to reach steady state flux of indomethacin [2]: about 2 hours
Structure (SMILES): CCCCCCCCCCCCOC(=O)CN(C)C [Compound No. 2, dodecyl (N,N-dimethylamino)acetate]

Structure (SMILES): CCCCCCCCCCOC(=O)CN1CCN(C)CC1 [Compound No. 6, Decyl (4-methyl-1-piperazinyl)acetate]
Relative Enhancement [1, 4]: 40%

Structure (SMILES): CCCCCCCCCCCCN1CCCCCC1=O [Azone, 1-Dodecylazacycloheptane-2-One, reference compound]
Relative Enhancement [1]: 100%
indomethacin detected in receptor cells ([1]; ointment, early stage of less than 12 hours): only a few
LD50 [3]: approximately 232 mg/kg

steady state flux for indomethacin [2]: 1.49 ± 0.21 µg/h
time to reach steady state flux of indomethacin [2]: about 5 hours
Structure (SMILES): CCCCCCCCCCCCO [dodecyl alcohol, reference compound]

Relative Enhancement [1]: 250%
Structure (SMILES): CCCCCCCCOC(=O)CN(C)C [Compound No. 4, octyl (N,N-dimethylamino)acetate]
